Measured values published in PMC3988029, “A Trisubstituted Benzimidazole Cell Division Inhibitor with Efficacy against Mycobacterium tuberculosis” (PLoS ONE, 2014).
In brackets after ≈: the same amount, converted by molar mass. Several values for one entry are separate records, joined by “and”; a condition that tells them apart may be missing. Equal entries are not always repeated. Entries after “also recorded” stand apart in the source; their conditions may differ. Where two headings read alike, the source gives them in different places.

Experiments:
[1] = tested on: M. tuberculosis strain Erdman; assay: Modified rapid (acute) murine model of infection; type: in vivo, Mycobacterium tuberculosis
Mtb FtsZ [2] = target: T1, Mtb FtsZ (Mycobacterium tuberculosis, UniProt P9WN95); details: earlier work of the authors; no reference given; cited from earlier work
T1 sequence (P9WN95 whole entry, looked up): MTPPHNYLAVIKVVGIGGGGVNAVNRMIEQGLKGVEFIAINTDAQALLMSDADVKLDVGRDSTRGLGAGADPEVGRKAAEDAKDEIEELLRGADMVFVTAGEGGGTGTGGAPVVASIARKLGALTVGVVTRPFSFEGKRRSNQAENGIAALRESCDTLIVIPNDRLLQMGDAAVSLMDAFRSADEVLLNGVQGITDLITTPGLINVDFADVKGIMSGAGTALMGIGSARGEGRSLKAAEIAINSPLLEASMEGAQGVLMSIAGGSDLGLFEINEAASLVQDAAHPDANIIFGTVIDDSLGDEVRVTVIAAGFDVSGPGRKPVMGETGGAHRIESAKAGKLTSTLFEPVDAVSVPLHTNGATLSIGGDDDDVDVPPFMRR

M. tuberculosis H37Rv [3] = details: lead selection from SAR studies; cited from earlier work
[4] = 100 ng/mL
Method: (§1) Blood was collected from animals using lithium heparin as anticoagulant, in the Animal Research & Welfare Domain at Disposition, Safety & Animal Research Montpellier (371 rue du Pr. J. Blayac, 34184 Montpellier Cedex 04, France) or vendors such as Charles River. Human plasma using lithium heparin as anticoagulant was provided by the EFS (Etablissement Français du Sang) of Montpellier, France. Plasma was spiked with the compound in order to obtain a final drug concentration of 100 ng/mL (expressed as non-salified compound). The spiked plasma (dedicated to C1h and C4h) was then incubated at 37°C for 1 h and 4 h. Plasma samples were analyzed by LC-MS/MS following protein precipitation. The limit of quantification for compounds was 10 ng/mL. Chromatographic conditions for LC analysis: 10 µL of the sample was injected to Luna Phenomenex C8 (50 mm×2.0 mm, 3 µm), Solvent A: ammonium acetate (0.15 g)/formic acid (2 mL)/HPLC water up to 1000 mL. […] MS/MS condition used for detection: Finnigan TSQ Quantum disco instrument, Excalibur version 2.0 acquisition system, ESI positive ion ionization mode. The mean percent of difference between C1h or C4h and C0 concentrations was calculated.
M%D (%) = 100 × [(C1h or C4h)–C0]/C0
(§2) The compounds were considered as stable if the mean percent of difference between C4h and C0 concentrations was less than 20%.

[5] = 100 ng/mL; remark: listed apart in the source
Method: as §1
M%D (%) = 100 × [(C1h or C4h)–C0]/C0
as §2

[6] = 5 µM, 1 mg/mL microsomal protein, NADPH, 20 min
Method: (§3) The flavin-containing monooxygenases (FMO)-dependent reactions were run in the presence of bovine serum albumin (BSA, 0.1%) for the duration of 0 and 20 min (with or without microsomal proteins and/or cofactors). […] Following protein precipitation with acetonitrile and their removal by centrifugation, supernatant fluids were analyzed by LC/MS-MS.
(§4) Thermo Finnigan TSQ Quantum Ultra instrument, ESI positive ion ionization mode. Each compound is studied in duplicates. Results are expressed in percentage of lability (or total metabolism).
(§5) Total metabolism = [1– (UC1 Peak Area)/(UC2 Peak Area)] × 100.
(§6) UCn = Unchanged Compound in condition n;
(§7) n = 1: incubation in the presence of NADPH cofactor after T = 20 min.
(§8) n = 2: incubation without cofactor at T = 0 min.

M. tuberculosis H37Rv [7] = assay: Time-dose growth (OD600 nm) and kill (CFU) curves; type: cell-based, Mycobacterium tuberculosis
M. tuberculosis NHN382 = assay: Microplate Alamar Blue assay (MABA) MIC; type: cell-based; details: Mycobacterium tuberculosis
M. tuberculosis W210 = assay: Microplate Alamar Blue assay (MABA) MIC; type: cell-based; details: Mycobacterium tuberculosis
M. tuberculosis TN587 = assay: Microplate Alamar Blue assay (MABA) MIC; type: cell-based; details: Mycobacterium tuberculosis
[8] = 5 µM, 1 mg/mL microsomal protein, NADPH, 20 min; remark: listed apart in the source
Method: as §3, §4, §5, §6, §7, §8

M. tuberculosis H37Rv [9] = assay: Microplate Alamar Blue assay (MABA) MIC; type: cell-based; details: Mycobacterium tuberculosis
Mtb FtsZ [10] = target: T1, Mtb FtsZ; assay: Transmission electron microscopy of FtsZ polymerization; type: biochemical, M. tuberculosis; details: FtsZ 5 µM, GTP 25 µM
M. tuberculosis NHN20 = assay: Microplate Alamar Blue assay (MABA) MIC; type: cell-based; details: Mycobacterium tuberculosis
[11] = tested on: M. tuberculosis clinical isolates; details: determined and reported; cited from earlier work

## NNC(=O)c1ccncc1 [INH, isoniazid, reference compound]
[1]; IP 20 mg/kg qd, control drug
  CFU counts in the lung and spleen: below the level of detection

## CCCCOC(=O)Nc1cc2nc(C3CCCCC3)[nH]c2cc1N(CC)CC [SB-P3G2]
Mtb FtsZ [2]
  Inhibition of FtsZ polymerization: inhibit FtsZ polymerization in a dose dependent manner

## CN(C)c1cc2[nH]c(C3CCCCC3)nc2cc1NC(=O)c1ccc(OC(F)(F)F)cc1 [SB-P17G-A20]
M. tuberculosis H37Rv [3]
  MIC: 0.16 µg/mL (≈ 0.358 µM)
[1]; C57BL/6-Ifngtm1ts mice, 50 mg/kg IP bid, days 5 to 14 post-infection, vs infected controls
  Reduction in the bacterial load in the lungs: 1.73±0.24 log10 CFU
[1]; C57BL/6-Ifngtm1ts mice, 50 mg/kg IP bid, days 5 to 14 post-infection, vs infected controls, 50 mg/kg
  Reduction in the bacterial load in the spleen: 2.68 log10 CFU and 2.68±0.48 log10 CFU
[4]
  Plasma Stability (% hydrolysis) Mouse (4 h): 24.4%
[5]
  Plasma Stability (% hydrolysis) Human (4 h): 0.1%
[6]
  Liver Microsome Lability Human: 39%
M. tuberculosis H37Rv [7]; CFU plating, day 0, 2, 4, 6
  Concentration that steadily reduced bacterial viability: 0.08 µg/mL
M. tuberculosis H37Rv [7]; growth curves at various concentrations
  Killing characteristics: concentration-dependent inhibitor with sub-MIC inhibitory characteristics
M. tuberculosis H37Rv [7]; in some cases
  Lowest concentration at which bacterial growth was reduced: 0.125 X MIC
M. tuberculosis NHN382
  MIC: 0.16 µg/mL (≈ 0.358 µM)
M. tuberculosis W210
  MIC: 0.16 µg/mL (≈ 0.358 µM)
M. tuberculosis TN587
  MIC: 0.16 µg/mL (≈ 0.358 µM)
[8]
  Liver Microsome Lability Mouse: 45%
M. tuberculosis H37Rv [9]
  MIC: 0.16 µg/mL (≈ 0.358 µM)
Mtb FtsZ [10]; 40 µM compound
  Effect on FtsZ polymers (TEM): the length, density and aggregation was visibly reduced
Mtb FtsZ [10]; 80 µM compound
  Effect on FtsZ polymers (TEM): dispersed FtsZ polymers are observed
M. tuberculosis NHN20
  MIC: 0.16 µg/mL (≈ 0.358 µM)

## CCCCOC(=O)Nc1cc2nc(C3CCCCC3)[nH]c2cc1N(C)C [SB-P17G-C2]
M. tuberculosis H37Rv [3]
  MIC: 0.06 µg/mL (≈ 0.167 µM)
[1]; acute mouse model, data not shown
  Reduction in the bacterial load in the lungs or spleen: no significant reduction; also recorded: did not significantly reduce the bacterial load in the lungs or spleen
[11]
  MIC values against clinical isolates: 0.06 to 0.13 µg/mL
[5]
  Plasma Stability (% hydrolysis) Human (4 h): 6.1%
[6]
  Liver Microsome Lability Human: 90%
[8]
  Liver Microsome Lability Mouse: 96%
